# Assay results reported in paper PMC7354438 (Viruses, 2020).
# Counter-ions that a name gives are not always drawn.
# Test system: hCoV-19/Norway/Trondheim-E9/2020
# Experiment: Drug test: viability of SARS-CoV-2-infected Vero-E6 cells (CellTiter-Glo)
# Type: cell-based
# Set-up: AUC: unit not given beside the values
# Details: 72 h
row,Molecule,AUC
1,Cc1cc(O)c2c(c1)C(=O)c1cc(O)cc(O)c1C2=O [Emodin],"170,24"
2,C[C@@H]1O[C@@H](O[C@H]2C[C@@H](O)[C@]3(CO)[C@H]4[C@H](O)C[C@]5(C)[C@@H](C6=CC(=O)OC6)CC[C@]5(O)[C@@H]4CC[C@]3(O)C2)[C@H](O)[C@H](O)[C@H]1O [Ouabain octahydrate],"41,93"
3,CC[C@@]1([C@@H]2O[C@@H]([C@H]3O[C@@](O)(CO)[C@H](C)C[C@@H]3C)C[C@@H]2C)CC[C@H]([C@]2(C)CC[C@]3(C[C@H](O)[C@@H](C)[C@@H]([C@@H](C)[C@@H](OC)[C@H](C)C(=O)O)O3)O2)O1 [Monensin],"254,31"
4,Doxycycline hyclate,"143,99"
5,"NCCCC(N)(C(=O)O)C(F)F (stereo not drawn) [DFMO (Difluoromethylomithine), Difluoromethylomithine]","142,66"
6,CC[C@H](CO)Nc1nc(NCc2ccccc2)c2ncn(C(C)C)c2n1 [Roscovitine],"137,97"
7,COc1ccc2cc3[n+](cc2c1OC)CCc1cc2c(cc1-3)OCO2 [Berberine],"236,67"
8,C[C@H]1O[C@@H](O[C@H]2CC[C@@]3(C)[C@@H](CC[C@]4(C)[C@@H]3C=C[C@]35OC[C@@]6(CCC(C)(C)C[C@H]63)[C@@H](O)C[C@]54C)[C@]2(C)CO)[C@H](O)[C@@H](O[C@@H]2O[C@H](CO)[C@@H](O)[C@H](O)[C@H]2O)[C@H]1O [Saikosaponin A],77
9,Clomiprade hydrochloride,"74,69"
10,CN[C@@H]1C[C@H]2O[C@@](C)([C@@H]1OC)n1c3ccccc3c3c4c(c5c6ccccc6n2c5c31)C(=O)NC4 [Staurosporine],"15,75"
11,CCCCCCCCCCNCCN[C@@]1(C)C[C@H](O[C@H]2[C@H](Oc3c4cc5cc3Oc3ccc(cc3Cl)[C@@H](O)[C@@H](NC(=O)[C@@H](CC(C)C)NC)C(=O)N[C@@H](CC(N)=O)C(=O)N[C@H]5C(=O)N[C@H]3C(=O)N[C@H](C(=O)N[C@H](C(=O)O)c5cc(O)c(CNCP(=O)(O)O)c(O)c5-c5cc3ccc5O)[C@H](O)c3ccc(c(Cl)c3)O4)O[C@H](CO)[C@@H](O)[C@@H]2O)O[C@@H](C)[C@H]1O [Telavancin],"139,65"
12,CC(C)C[C@H]1C(=O)N2CCC[C@H]2[C@]2(O)O[C@](NC(=O)[C@@H]3C=C4c5cccc6[nH]c(Br)c(c56)C[C@H]4N(C)C3)(C(C)C)C(=O)N12.CS(=O)(=O)O [Bromcriptine mesilate],"59,71"
13,CO[C@@]1(NC(=O)C(C(=O)[O-])c2ccc(O)cc2)C(=O)N2C(C(=O)[O-])=C(CSc3nnnn3C)CO[C@@H]21.[Na+].[Na+] (stereo partly drawn) [Moxalactam sodium salt],"18,13"
14,"CC(C)OC(=O)[C@H](C)N[P@](=O)(OC[C@H]1O[C@@H](n2ccc(=O)[nH]c2=O)[C@](C)(F)[C@@H]1O)Oc1ccccc1 [PSI-7977 (Sofosbuvir), Sofosbuvir]","131,11"
15,Nc1ncn([C@@H]2O[C@H](CO)[C@@H](O)[C@H]2O)c(=O)n1 [Azacytidine],"228,06"
16,C[C@H]1O[C@H](O[C@H]2[C@H](O)[C@@H](O)[C@@H](O)[C@H](O)[C@@H]2O)[C@@H](N)C[C@@H]1NC(=N)C(=O)O [Kasugamycin],"88,55"
17,CO[C@H]1C[C@@H]2CC[C@@H](C)[C@@](O)(O2)C(=O)C(=O)N2CCCC[C@H]2C(=O)O[C@H]([C@H](C)C[C@@H]2CC[C@@H](O)[C@H](OC)C2)CC(=O)[C@H](C)/C=C(\C)[C@@H](O)[C@@H](OC)C(=O)[C@H](C)C[C@H](C)/C=C/C=C/C=C/1C [Rapamycin],"46,9"
18,Ivermectin,"66,08"
19,C[C@]12Cc3c[nH]nc3C[C@@H]1CC[C@@H]1[C@@H]2CC[C@@]2(C)[C@H]1CC[C@]2(C)O [Stanozolol],"161,7"
20,COc1ccc(C[C@H]2NC[C@H](O)[C@H]2OC(C)=O)cc1 [Anisomycin],"169,33"
21,Pentosan polysulfate,"123,06"
22,CC(C)C[C@H]1C(=O)N2CCC[C@H]2[C@]2(O)O[C@](NC(=O)[C@@H]3C=C4c5cccc6[nH]c(Br)c(c56)C[C@H]4N(C)C3)(C(C)C)C(=O)N12 [Bromocriptine],"164,57"

# Same assay, conditions: area under the dose-response curve of viability of virus-infected Vero-E6 cells; moi 0.1; 72 h; 7 concentrations; decimal comma
row,Molecule,AUC
1,"CNC(=O)c1cc(Oc2ccc(NC(=O)Nc3ccc(Cl)c(C(F)(F)F)c3)cc2)ccn1 [Sorafenib (BAY 43-9006), Sorafenib]","33,12"
2,Nc1nc(Cl)nc2c1ncn2[C@@H]1O[C@H](CO)[C@@H](O)[C@@H]1F [Clofarabine],"112,42"
3,CC12CC3CC(C)(C1)CC(N)(C3)C2 [Memantine],"115,78"
4,CN(Cc1cc(Br)cc(Br)c1N)C1CCCCC1 [Bromhexine HCl],"124,95"
5,COc1cc2ncnc(Nc3ccc(F)c(Cl)c3)c2cc1OCCCN1CCOCC1 [Gefitinib],"188,86"
6,CC(C)c1nc(CN(C)C(=O)N[C@H](C(=O)N[C@@H](Cc2ccccc2)C[C@H](O)[C@H](Cc2ccccc2)NC(=O)OCc2cncs2)C(C)C)cs1 [Ritonavir],"137,69"
7,CCC(C)n1ncn(-c2ccc(N3CCN(c4ccc(OCC5COC(Cn6cncn6)(c6ccc(Cl)cc6Cl)O5)cc4)CC3)cc2)c1=O (stereo not drawn) [Itraconazole],"110,18"
8,CN(C)CCCN1c2ccccc2Sc2ccc(Cl)cc21 [Chlorpromazine hydrochloride],"86,52"
9,COc1ccc2[nH]c([S+]([O-])Cc3ncc(C)c(OC)c3C)nc2c1 (stereo not drawn) [Omeprazole],"139,02"
10,C[C@H]1[C@H](OC(=O)CCC(=O)O)O[C@@H]2O[C@@]3(C)CC[C@H]4[C@H](C)CC[C@@H]1[C@@]24OO3 [Artesunate],"222,25"
11,Nc1nc(=O)c2ncn([C@@H]3C[C@H](CO)[C@H]3CO)c2[nH]1 [Lobucavir],"153,65"
12,O=C1O[C@H]([C@@H](O)CO)C(O)=C1O [Ascorbic acid],"108,5"
13,Cc1oncc1C(=O)Nc1ccc(C(F)(F)F)cc1 [Leflunomide],"47,95"
14,CC(C)n1c(/C=C/C(O)CC(O)CC(=O)O)c(-c2ccc(F)cc2)c2ccccc21 (stereo not drawn) [Fluvastatin],"154,14"
15,"CC(C)C[C@H](NC(=O)[C@H](Cc1ccccc1)NC(=O)c1cnccn1)B(O)O [Bortezomib (PS-341), Bortezomib]","68,67"
16,COc1cccc(N2CCN(C3=Nc4c(F)cccc4[C@H](CC(=O)O)N3c3cc(C(F)(F)F)ccc3OC)CC2)c1 [Letermovir],"134,12"
17,CO[C@@H]1[C@@H](OC(N)=O)[C@@H](O)[C@H](Oc2ccc3c(O)c(NC(=O)c4ccc(O)c(CC=C(C)C)c4)c(=O)oc3c2C)OC1(C)C [Novobiocin],"100,73"
18,Cc1cccc(C)c1OCC(=O)N[C@@H](Cc1ccccc1)[C@@H](O)C[C@H](Cc1ccccc1)NC(=O)[C@H](C(C)C)N1CCCNC1=O [Lopinavir],"157,36"
19,Cc1c(-c2ccc(-c3ccccc3F)cc2)nc2ccc(F)cc2c1C(=O)O [Brequinar],"260,54"
20,CNC(=O)c1cc(Oc2ccc(NC(=O)Nc3ccc(Cl)c(C(F)(F)F)c3)c(F)c2)ccn1 [Regorafenib],"24,12"
21,Nc1nc(O)c2ncn(COC(CO)CO)c2n1 [Ganciclovir],"243,88"
22,COc1c(C)c2c(c(O)c1C/C=C(\C)CCC(=O)O)C(=O)OC2 [Mycophenolic acid],"103,74"
23,O=C1[C@H](CC[C@H](O)c2ccc(F)cc2)[C@@H](c2ccc(O)cc2)N1c1ccc(F)cc1 [Ezetimibe],"138,39"
24,CCCCOc1cc(C(=O)NCCN(CC)CC)c2ccccc2n1 [Dibucaine],"214,34"

row,Molecule,AUC
1,CCN(CCO)CCCC(C)Nc1ccnc2cc(Cl)ccc12 (stereo not drawn) [Hydroxychloroquine],"147,63"
2,O=C(O)P(=O)(O)O [Foscarnet],"127,26"
3,CCN(CC)CCCC(C)Nc1ccnc2cc(Cl)ccc12 (stereo not drawn) [Chloroquine phosphate],"165,9"
4,Cc1cc(CCCOc2c(C)cc(-c3noc(C(F)(F)F)n3)cc2C)on1 [Pleconaril],"141,75"
5,Cc1nc(Nc2ncc(C(=O)Nc3c(C)cccc3Cl)s2)cc(N2CCN(CCO)CC2)n1 [Dasatinib],"135,45"
6,CC[C@H](C)C(=O)O[C@H]1C[C@@H](C)C=C2C=C[C@H](C)[C@H](CC[C@@H]3C[C@@H](O)CC(=O)O3)[C@H]21 [Lovastatin],"204,26"
7,CC(=O)N[C@@H](CS)C(=O)O [Acetylcysteine],"43,47"
8,Nc1ccn([C@@H]2O[C@H](CO)[C@@H](O)C2(F)F)c(=O)n1 [Gemcitabine],"92,89"
9,CNC(=C[N+](=O)[O-])NCCSCc1ccc(CN(C)C)o1 [Ranitidine],"94,08"
10,CC(C)OC(=O)OCOP(=O)(CO[C@H](C)Cn1cnc2c(N)ncnc21)OCOC(=O)OC(C)C [Tenofovir disoproxil fumarate],"137,2"
11,CC(C)[C@H](N)C(=O)OCCOCn1cnc2c(=O)[nH]c(N)nc21 [Valaciclovir],"134,61"
12,CCC(C)(C)C(=O)O[C@H]1C[C@@H](C)C=C2C=C[C@H](C)[C@H](CC[C@@H]3C[C@@H](O)CC(=O)O3)[C@H]21 [Simvastatin],"163,03"
13,CC[C@@]1(O)C(=O)OCc2c1cc1n(c2=O)Cc2cc3c(CN(C)C)c(O)ccc3nc2-1 [Topotecan],"124,6"
14,O=c1cc(-c2ccc(O)c(O)c2)oc2cc(O)cc(O)c12 [Luteolin],"119,07"
15,Cn1c(=O)c2c(ncn2C)n(C)c1=O [Caffeine],"147,28"
16,CC/C(=C(\c1ccccc1)c1ccc(OCCN(C)C)cc1)c1ccccc1 [Tamoxifen],"54,67"
17,CN(C)C(=O)COC(=O)Cc1ccc(OC(=O)c2ccc(NC(=N)N)cc2)cc1 [Camostat],"88,41"
18,CC(C)COCC(CN(Cc1ccccc1)c1ccccc1)N1CCCC1 (stereo not drawn) [Bepridil],"285,95"
19,"Nc1ncnc2c([C@@H]3N[C@H](CO)[C@@H](O)[C@H]3O)c[nH]c12 [BCX4430 (galidesivir), galidesivir]","94,08"
20,CC(C)Nc1nc2cc(Cl)c(Cl)cc2n1[C@H]1O[C@@H](CO)[C@H](O)[C@@H]1O [Maribavir],"145,81"
21,CNCCC(Oc1ccc(C(F)(F)F)cc1)c1ccccc1 (stereo not drawn) [Fluoxetine],"104,37"
22,O=c1[nH]c(=O)n([C@H]2C[C@H](O)[C@@H](CO)O2)cc1C(F)(F)F [Trifluridine],"107,17"
23,CC(=O)N[C@H]1[C@H]([C@H](O)[C@H](O)CO)OC(C(=O)O)=C[C@@H]1N=C(N)N [Zanamivir],"113,54"
